Tested on: NanoLuc-PEST expressing L. mexicana axenic amastigotes
Assay: microbe, parasite or virus in culture
Format: cell-based
Conditions: for Relative Bioluminescence (%) / viability at 2 µM / viability at 10 µM: 72 hours, relative to DMSO only control, n = 4; for viability at 2 µM / viability at 10 µM: Leishmania mexicana, read-out: Relative Bioluminescence (%)

| SMILES | Relative Bioluminescence (%) (2 µM compound) | Relative Bioluminescence (%) (10 µM compound) | viability at 2 µM (2 µM compound) [%] | viability at 10 µM (10 µM compound) [%] | EC50 (hit compounds from the axenic amastigote screen, S3 Table, read-out: EC50, Axenic Amastigotes) [µM] |
| --- | --- | --- | --- | --- | --- |
| NCC(=O)N1CCn2c(nc(-c3ccccc3)c2Nc2ccc3c(c2)OCO3)C1 [MMV011691] | 105.27 | 73.17 |  |  |  |
| CNC(=O)CNc1nc(-c2ccccn2)nc2scc(-c3ccccc3)c12 [MMV1029203] | 83.99 | 52.70 |  |  |  |
| CCn1cnc2c(Nc3cc(F)cc(F)c3)nc(C#N)nc21 [MMV676881] | 76.51 | 54.00 |  |  |  |
| CO[C@H]1/C=C/O[C@@]2(C)Oc3c(C)c(O)c4c(O)c(c(/C=N/N5CCN(C)CC5)c(O)c4c3C2=O)NC(=O)/C(C)=C\C=C\[C@H](C)[C@H](O)[C@@H](C)[C@@H](O)[C@@H](C)[C@H](OC(C)=O)[C@@H]1C [MMV688775, Rifampicin, reference compound] |  |  | 47.6 | 2.74 |  |
| Nc1ccc(C(=O)Nc2ccc(-c3nc4ccccc4o3)cc2)cc1 [MMV007920] | 112.76 | 88.96 |  |  |  |
| O=C(C1CCN(c2nnc(-n3cccc3)s2)CC1)N1CCC(Cc2ccccc2)CC1 [MMV676478] | 93.56 | 56.18 |  |  |  |
| c1ccc(C[C@@H]2CN(c3nccc(Oc4ccc(-n5ccnc5)cc4)n3)CCN2)cc1 [MMV687749] | 66.01 | 56.67 |  |  |  |
| COc1cc2ncnc(NC3CCN(Cc4ccccc4)CC3)c2cc1OC [MMV006741] | 83.56 | 113.49 |  |  |  |
| COc1ccc(Nc2ccccc2NC(=O)c2ccc(=O)[nH]c2)cc1 [MMV676554] | 97.83 | 103.74 |  |  |  |
| CC1(O)CC(c2nc(-c3ccc4ccc(-c5ccccc5)nc4c3)c3c(N)nccn23)C1 (centres unmarked) [MMV676605] | 81.06 | 84.63 |  |  |  |
| C[C@H]1COC2(CCN(c3nc(=O)c4cc(C(F)(F)F)cc([N+](=O)[O-])c4s3)CC2)O1 [MMV676603] | 83.14 | 75.26 |  |  |  |
| Cc1ccc(S(=O)(=O)Nc2ccc(CN3CCN(C(=O)c4cccc(C#N)c4)CC3)cc2)cc1 [MMV689028] | 54.14 | 72.62 |  |  |  |
| CC(C)(C)OC(=O)N1CCN(c2cc(-c3ccc(Oc4ccccc4)cc3)n[nH]2)CC1 [MMV676057] | 119.16 | 36.52 |  |  |  |
| Cn1ncc2c(N3CCOCC3)nc(NCCc3c[nH]c4ccccc34)nc21 [MMV676382] | 73.92 | 64.75 |  |  |  |
| Nc1nccc2ccc(Oc3ccncc3)cc12 [MMV026313] | 56.90 | 66.48 |  |  |  |
| CCN(CC)CCCCCCNc1cc(OC)cc2c(C)ccnc12 [MMV000063, Sitamaquine, reference compound] |  |  | 69.6 | 73.6 |  |
| COc1ccc(Cn2cnc3c(-c4ccco4)nc(Cl)nc32)cc1 [MMV687170] | 107.56 | 104.36 |  |  |  |
| Cc1cccc(NC(=O)c2cc(S(=O)(=O)N(C)c3ccc(F)cc3)ccc2Cl)n1 [MMV676528] | 77.13 | 57.74 |  |  |  |
| COc1cccc(CC(=O)N2CCC(n3c(C)nc4ccc(F)cc43)CC2)c1 [MMV020081] | 98.78 | 73.47 |  |  |  |
| COc1cc(NC(=O)Cc2nn(C)c(=O)c3ccccc23)ccc1Cl [MMV676053] | 106.26 | 78.76 |  |  |  |
| NC(=O)c1cc(-c2ccsc2)ccc1OCCOc1ccccc1 [MMV687138] | 56.61 | 48.25 |  |  |  |
| Nc1nccc2ccc(-c3ccc4nccn4c3)cc12 [MMV023233] | 106.85 | 120.49 |  |  |  |
| O=C(OCc1ccccc1)N1CCC(c2cc(-c3ccncc3)c(-c3ccc(F)cc3)[nH]2)CC1 [MMV688509] | 70.28 | 27.84 |  |  |  |
| Cc1noc(C)c1C(=O)N1CCCC(c2[nH]c3c(C)cccc3c2-c2ccncc2)C1 (centres unmarked) [MMV020623] | 68.14 | 86.96 |  |  |  |

| SMILES | Relative Bioluminescence (%) (2 µM compound) | Relative Bioluminescence (%) (10 µM compound) | viability at 2 µM (2 µM compound) [%] | viability at 10 µM (10 µM compound) [%] | EC50 (hit compounds from the axenic amastigote screen, S3 Table, read-out: EC50, Axenic Amastigotes) [µM] |
| --- | --- | --- | --- | --- | --- |
| CCc1nc2ccc(C(=O)NCc3ccc4c(c3)OCO4)cn2c1N(C)Cc1cccs1 [MMV407539] | 104.77 | 70.84 |  |  |  |
| O=C(Nc1n[nH]c(=S)s1)c1cc(Br)ccc1Cl [MMV676492] | 60.28 | 23.83 |  |  |  |
| COc1cc(C(F)(F)F)nc2ccc(C)c(N)c12 [MMV047015] | 86.47 | 82.90 |  |  |  |
| CCCCN(CCCC)c1c(C#N)cc(S(=O)(=O)Nc2ccccc2)cc1C#N [MMV688467] | 6.98 | 2.46 |  |  | 1.65 |
| CC(C)(C)n1nc(-c2ccccc2)c2c(N)ncnc21 [MMV688548] | 78.88 | 77.20 |  |  |  |
| Clc1ccc(CCNc2cc(-c3ccccc3)nc3ncnn23)cc1 [MMV688889] | 73.23 | 59.03 |  |  |  |
| O=C(NC1CC1)c1ccc(N2CCC(Cc3ccccc3)CC2)nc1 [MMV024397] | 92.24 | 86.39 |  |  |  |
| O=C(CCC1CCCCC1)Nc1cccc(-c2nnc(-c3ccco3)o2)c1 [MMV676589] | 54.08 | 15.64 |  |  |  |
| COc1ccc(C(=N)N)cc1-c1cn(-c2ccc(C(=N)N)cc2)nn1 [MMV675998] | 92.81 | 65.21 |  |  |  |
| CC1=Nc2ccc(Cl)cc2C(O)(c2ccc(C)cc2)N1CCN1CCCCC1 (centres unmarked) [MMV688279] | 70.45 | 75.33 |  |  |  |
| Cc1ccc(-c2nc(CN(Cc3ccccn3)C(C)C)cs2)o1 [MMV1088520] | 70.72 | -3.27 |  |  |  |
| O=C(NCCc1c[nH]c2ccccc12)c1cc2ccccc2oc1=O [MMV676539] | 54.78 | 62.48 |  |  |  |
| Nc1ncnc2n[nH]c(Cc3cccc4ccccc34)c12 [MMV688469] | 103.98 | 53.28 |  |  |  |
| c1ccc(Oc2ccc(-c3cc(N4CCNCC4)[nH]n3)cc2)cc1 [MMV687706] | 85.99 | 75.35 |  |  |  |
| CN(C)CCNC(=O)N1CCCN(c2ncnc3cc(-c4ccccc4)sc23)CC1 [MMV024195] | 89.61 | 76.61 |  |  |  |
| CCn1ncc2c(NC3CCOCC3)c(CNC(=O)c3ccnn3C)c(C)nc21 [MMV026356] | 76.21 | 65.05 |  |  |  |
| CCCn1c(CNc2ccccc2O)nc2ccccc21 [MMV676445] | 79.21 | 77.96 |  |  |  |
| Cc1cnc(N2CCN[C@@H](Cc3ccccc3)C2)nc1Oc1ccc(-n2ccnc2)cc1 [MMV687765] | 69.43 | 74.28 |  |  |  |
| CCOc1ccc2cc(-c3nn(CC4CCN(C)CC4)c4ncnc(N)c34)ccc2c1 [MMV688854] | 92.07 | 66.13 |  |  |  |
| Cn1ccnc1CNCCS(=O)(=O)c1cccc(Nc2ccc(-c3cccc(F)c3)cn2)c1 [MMV688466] | 108.11 | 117.26 |  |  |  |
| CC(=O)N(CCN(C(=O)c1ccc(F)cc1)c1ccccc1)c1ccccc1 [MMV676064] | 105.34 | 123.90 |  |  |  |
| CCNC(=O)C(C)Nc1nc(-c2cccnc2)nc2sc(C)c(C)c12 (centres unmarked) [MMV1037162] | 83.26 | 85.96 |  |  |  |
| CC(C)(C)CN1C(=O)C(c2ccccc2)(c2ccccc2)N=C1N [MMV026550] | 91.50 | 87.66 |  |  |  |
